Reference: patent US12465629B2, “Prevention and treatment of organ injuries” (Farsight Medical Technology (Shanghai) Co., Ltd., priority 2020, dated 2025)

How the values were obtained:
[1] = Comparative pharmacokinetic study, tissue distribution; design: species or system SD rats; conditions: rat, in vivo, iv, 3 mg/kg
Procedure: At the respective time points, blood samples and respective organ/tissues were collected and processed according to standard procedures The concentration of the respective drugs in the respective tissues were then measured using a validated LC-Ms/Ms method.

[2] = system: LPS induced lung injury in SD rats; assay: Acute lung injury model study II (LPS induced) in rats; format: in vivo; conditions: 1 and 3 mg/kg iv (G4, G5) at 1 h, 7 h, 24 h after LPS
Procedure: A study was conducted to assess the effect of combined administration of dexamethasone and Compound I in an acute lung injury model. LPS (lipopolysaccharide) was administered to induce lung injury in SD rats (SPF grade male, body weight 180-200 g).
Study group 1 (G1) served as sham control group (no induced acute lung injury) and Group 2 (G2) served as model group (acute lung injury, no treatment).
Dexamethasone, prepared as an aqueous solution, prepared by dissolving the appropriate amount in saline, was used as a positive control in group 3 (G3), and was also administered to group 6 (G6) and group 7 (G7), which also received Compound I. A lyophilized powder of Compound I, was dissolved in an aqueous reconstitution solution comprising Tween 80, acetic acid, sodium acetate, and further diluted with saline before application.
The animals were weighed. LPS (5 mg/kg) was then injected via the trachea of the rat after anesthesia and surgery to expose the trachea (all groups except for G1 where no LPS was injected). […]
Non-invasive lung function tests were determined at 24 hours and at 48 hours (end of the study). […]
Whole lung tissue samples were taken at end of study for histological examination. The histological examination comprised random selection of visual field areas which were blind scored for lung injury. […]

[3] = system: LPS induced lung injury in C57BL/6 mice; assay: Acute lung injury model study (LPS induced) in mice; format: in vivo
Procedure: Compound I was tested in an in vivo mouse model for acute lung injury.
LPS (lipopolysaccharide) was administered to induce lung injury in C57BL/6 mice. LPS elicits an acute inflammatory response in the lung, resulting in progressive damage, and necrosis of lung tissue including the bronchial wall, and alveoli.
LPS (0.3 mg/kg) was administered directly to the trachea of anaesthetized mice in study groups 2 to 6. […]
Non-invasive lung function tests including respiratory frequency, tidal volume, maximum inspiratory speeds and maximal expiratory speeds were determined on Day 2 and end of the study, 24 h after LPS was initially administered.
A significant impact was moreover observed with regards to the pathology of the lung tissue of the mice subjects. […] The histological examination comprised random selection of visual field areas which were blind scored for lung injury according to the following criteria: 1) alveolar congestion, 2) hemorrhage, 3) infiltration of inflammatory cells, and 4) thickness of alveolar wall according to a scale of 0 (minimal damage), 1, (mild damage), 2 (moderate damage), 3 (severe damage), and 4 (maximal damage). […]

With `C/C=C/C[C@@H](C)[C@@H](O)[C@H]1C(=O)N[C@@H](CC)C(=O)N(C)[C@H](OCCN(C)C)C(=O)N(C)[C@@H](CC(C)C)C(=O)N[C@@H](C(C)C)C(=O)N(C)[C@@H](CC(C)C)C(=O)N[C@@H](C)C(=O)N[C@H](C)C(=O)N(C)[C@@H](CC(C)C)C(=O)N(C)[C@@H](CC(C)C)C(=O)N(C)[C@@H](C(C)C)C(=O)N1C` [Compound I, [(R)-2′(2-dimethylaminoethoxy)-Sar]^3 cyclosporin A] the Tmax ([1]; both sexes, Sprague-Dawley (SD)) was 30 min, the Tissue distribution [1] was “distribute to a greater degree to organ tissues, such as the kidney, and the lung” and the “Total bronchial and arteriole injury scoring” value ([2]; FIG. 5B) was “performed significantly better than the model (G2) and the positive group (G3)”. The “Total alveolar injury scoring” value ([2]; vs model G2, FIG. 5A) was “significant positive effect in terms of decreasing the severity of injuries to alveolar tissue”, the “Non-invasive lung function tests (tidal volume, breath rate, peak inspiratory and expiratory flow)” value ([3]; ip 0.5 h and 6 h after LPS, 1, 5, 10 mg/kg, in particular 10 mg/kg, 24 h after LPS, FIG. 1) was “statistically relevant improvements in some of the lung function tests” and the “Histological lung injury scoring (bronchial, arteriole and alveolar tissue)” value ([3]; ip 0.5 h and 6 h after LPS, all doses 1, 5, 10 mg/kg, vs model group G2, FIG. 2) was “significant effect in terms of decreasing the severity of injuries to bronchial, arteriole and alveolar tissue”.
